Binding rate and IC50 data for 13 compounds are collected here from patent publication US20240246968A1, “SMALL MOLECULE INHIBITORS OF KRAS G12C MUTANT” (Merck Sharp & Dohme LLC, priority 2021, published 2024).

What is called IC50 is the concentration that inhibits the measured activity by half.

For experiment [1], the target named is Gppcp-bound recombinant K-Ras4B G12C mutant protein (amino acids 1-169, C51S/C80L/C118S) (Homo sapiens, UniProt P01116, C118S/C51S/C80L/G12C). As to the kind of experiment: KRASG12C binding assay (LC-MS, compound binding rate). The note with it: test compound final concentration 0.5 μM, 25° C., 1 hour. In outline:
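Covalent adduct formation measured by deconvoluted intact-mass LC-MS after 1 h at 25 °C with compound at 0.5 μM final and 50 nM Gppcp-loaded KRAS G12C (residues 1-169, C51S/C80L/C118S). Buffer: TBS, 0.1 mM TCEP, 0.25 mM MgCl2, 50 μM Gppcp. Binding % = one-molecule adduct/(unbound + all adducts), binned A ≥80, B 60–80, C 40–60, D 20–40, E <20.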

Experiment [2] deals with T1, interaction between recombinant K-Ras4B G12C mutant protein and cRAF RAS-binding domain (cRAF-RBD) (Homo sapiens, UniProt P01116, G12C).
T1 construct: made in house; host or cells: E. coli
In words: Inhibitory activity on interaction between KRAS G12C and cRAF (Alpha technology). In kind it is biochemical. The note with it: GMPPNP-bound KRAS G12C incubated with compound at 25° C. for 1 hour, then cRAF-RBD; Alpha signal. The method in brief:
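Alpha readout of cRAF-RBD (aa 50-132) binding to KRAS G12C (aa 1-169) after 1.5 h RT, following 1 h, 25° C compound preincubation with GMPPNP-bound protein (pH 7.5 Tris, 1 mM MgCl2, TCEP, Tween 20). IC50 fitted from titrations, with GDP-bound KRAS as 100% and DMSO as 0% inhibition.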

In experiment [3] the test system is MIA PaCa-2 cells. In words: Growth inhibition activity on KRAS-G12C mutant cell line (MIA PaCa-2), CellTiter-Glo 3D. In kind it is cell-based, human. As to conditions: MIA PaCa-2, 3-day culture with compound. The method in brief: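 Luminescence readout (CellTiter-Glo 3D) after 3 days of compound treatment at 37 °C, 5% CO2, 0.2% final DMSO, gave % growth inhibition versus no-compound wells, from which IC50 (nM) was derived; cells had been plated in 10% FBS RPMI1640 one day before dosing.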
For orientation: Cellular ATP, detected with luciferase, serves as a proxy for viable cell number.

With `Cc1cc2c(nc([C@@H](C)O)n2C)c(Cl)c1-c1cccn2c(C(=O)c3cc(F)c(NC(=O)/C=C/CNC(C)(C)C)c(F)c3)ccc12` [Example 98, (R,E)-4-(tert-butylamino)-N-(4-(8-(4-chloro-2-(1-hydroxyethyl)-1,6-dimethyl-1H-benzo[d]imidazol-5-yl)indolizine-3-carbonyl)-2,6-difluorophenyl)but-2-enamide], in experiment [1], the binding rate result is on record as “A (A binding rate of 80% or more is rated “A”)”. Also, the IC50 in experiment [2] stood at 41 nM; in experiment [3] (Homo sapiens, MIA PaCa-2, 72 h), 42 nM.

In the case of `Cc1cc2c(nc(CC(F)(F)F)n2C)c(Cl)c1-c1cccn2c(C(=O)c3cc(F)c(NC(=O)/C=C/CNC(C)(C)C)c(F)c3)ccc12` [Example 82, (E)-4-(tert-butylamino)-N-(4-(8-(4-chloro-1,6-dimethyl-2-(2,2,2-trifluoroethyl)-1H-benzo[d]imidazol-5-yl)indolizine-3-carbonyl)-2,6-difluorophenyl)but-2-enamide], the binding rate entry in experiment [1] is given as “A (A binding rate of 80% or more is rated “A”)”. For the same compound, the IC50 in experiment [2] was 96 nM; in experiment [3] (Homo sapiens, MIA PaCa-2, 72 h), 260 nM.

Take `Cc1nc2cc(-c3cccn4c(C(=O)c5cc(F)c(NC(=O)/C=C/CNC(C)(C)C)c(F)c5)ccc34)c(C(F)(F)F)cc2n1C` [Example 25, (E)-4-(tert-butylamino)-N-(4-(8-(1,2-dimethyl-6-(trifluoromethyl)-1H-benzo[d]imidazol-5-yl)indolizine-3-carbonyl)-2,6-difluorophenyl)but-2-enamide]: the binding rate entry in experiment [1] is “A (A binding rate of 80% or more is rated “A”)”. In addition, the IC50 in experiment [2] came to 79 nM; in experiment [3] (Homo sapiens, MIA PaCa-2, 72 h), 100 nM.

Regarding `COc1c(-c2cccn3c(C(=O)c4cc(F)c(NC(=O)/C=C/CN[C@H]5CC[C@H](OC)CC5)c(F)c4)ccc23)c(C)cc2c1nc(C)n2C` (single isomer, unassigned) [Example 39-2, (E)-N-(2,6-difluoro-4-(8-(4-methoxy-1,2,6-trimethyl-1H-benzo[d]imidazol-5-yl)indolizine-3-carbonyl)phenyl)-4-(((1r,4r)-4-methoxycyclohexyl)amino)but-2-enamide], the binding rate entry in experiment [1] is “A (A binding rate of 80% or more is rated “A”)”. Besides, the IC50 in experiment [2] turned out to be 32 nM; in experiment [3], 44 nM.

Regarding `C/C=C/c1cc(C(=O)c2cc(F)c(NC(=O)/C=C/CN[C@H]3CC[C@H](OC)CC3)c(F)c2)n2cccc(-c3c(C)cc4c(nc(C)n4C)c3Cl)c12` [Example 96, (E)-N-(4-(8-(4-chloro-1,2,6-trimethyl-1H-benzo[d]imidazol-5-yl)-1-((E)-prop-1-en-1-yl)indolizine-3-carbonyl)-2,6-difluorophenyl)-4-(((1r,4r)-4-methoxycyclohexyl)amino)but-2-enamide], the binding rate entry in experiment [1] was “A (A binding rate of 80% or more is rated “A”)”. The 50% inhibitory concentration (IC50) in experiment [2] is 36 nM; in experiment [3] (Homo sapiens, MIA PaCa-2, 72 h) it was 130 nM.

With `Cc1nc2c(Cl)c(-c3cccn4c(C(=O)c5cc(F)c(NC(=O)/C=C/CNC(C)(C)C)c(F)c5)ccc34)c(C(F)(F)F)cc2n1C` (single isomer, unassigned) [Example 56-1, (E)-4-(tert-butylamino)-N-(4-(8-(4-chloro-1,2-dimethyl-6-(trifluoromethyl)-1H-benzo[d]imidazol-5-yl)indolizine-3-carbonyl)-2,6-difluorophenyl)but-2-enamide], the binding rate entry in experiment [1] is recorded as “A (A binding rate of 80% or more is rated “A”)”. The half-inhibitory concentration (IC50) in experiment [2] worked out at 450 nM; in experiment [3], 1100 nM.

For the compound `CO[C@H]1CC[C@H](NC/C=C/C(=O)Nc2c(F)cc(C(=O)c3cc(-c4cnn(C)c4)c4c(-c5c(C)cc6c(nc(C)n6C)c5Cl)cccn34)cc2F)CC1` [Example 101, (E)-N-(4-(8-(4-chloro-1,2,6-trimethyl-1H-benzo[d]imidazol-5-yl)-1-(1-methyl-1H-pyrazol-4-yl)indolizine-3-carbonyl)-2,6-difluorophenyl)-4-(((1r,4r)-4-methoxycyclohexyl)amino)but-2-enamide], the binding rate result in experiment [1] is reported as “A (A binding rate of 80% or more is rated “A”)”. In addition, the IC50 in experiment [2] amounted to 54 nM; in experiment [3] (Homo sapiens, MIA PaCa-2, 72 h) it was 93 nM.

As for `COc1c(-c2cccn3c(C(=O)c4cc(F)c(NC(=O)/C=C/CNC5(C)CC5)c(F)c4)c(C)nc23)c(C(F)(F)F)cc2c1nc(C)n2C` (single isomer, unassigned) [Example 109-1, (E)-N-(2,6-difluoro-4(8-(4-methoxy-1,2-dimethyl-6-(trifluoromethyl)-1H-benzo[d]imidazol-5-yl)-2-methylimidazo[1,2-a]pyridine-3-carbonyl)phenyl)-4-((1-methylcyclopropyl)amino)but-2-enamide], in experiment [1], the binding rate entry is given as “A (A binding rate of 80% or more is rated “A”)”. Besides, the values for the 50% inhibitory concentration (IC50) in experiment [2] and in experiment [3] were 19.2 nM and 21.6 nM, respectively.

For `Cc1cc2c(ncn2C)c(Cl)c1-c1cccn2c(C(=O)c3cc(F)c(NC(=O)/C=C/CNC4CCOCC4)c(F)c3)ccc12` (single isomer, unassigned) [Example 27-1, (E)-N-(4-(8-(4-chloro-1,6-dimethyl-1H-benzo[d]imidazol-5-yl)indolizine-3-carbonyl)-2,6-difluorophenyl)-4-((tetrahydro-2H-pyran-4-yl)amino)but-2-enamide], in experiment [1], the binding rate entry is given as “A (A binding rate of 80% or more is rated “A”)”. In addition, the IC50 in experiment [2] is 25 nM; in experiment [3], 120 nM.

Turning to `CO[C@H]1CC[C@H](NC/C=C/C(=O)Nc2c(F)cc(C(=O)c3cc(I)c4c(-c5c(C)cc6c(nc(C)n6C)c5Cl)cccn34)cc2F)CC1` [Example 75, (E)-N-(4-(8-(4-chloro-1,2,6-trimethyl-1H-benzo[d]imidazol-5-yl)-1-iodoindolizine-3-carbonyl)-2,6-difluorophenyl)-4-(((1r,4r)-4-methoxycyclohexyl)amino)but-2-enamide], in experiment [1], the binding rate entry is “A (A binding rate of 80% or more is rated “A”)”. The IC50 was 37 nM in experiment [2] and 230 nM in experiment [3] (Homo sapiens, MIA PaCa-2, 72 h).

As to `COc1cc2c(nc(C)n2C)c(Cl)c1-c1cccn2c(C(=O)c3cc(F)c(NC(=O)/C=C/CNC(C)(C)C)c(F)c3)ccc12` (single isomer, unassigned) [Example 36-2, (E)-4-(tert-butylamino)-N-(4-(8-(4-chloro-6-methoxy-1,2-dimethyl-1H-benzo[d]imidazol-5-yl)indolizine-3-carbonyl)-2,6-difluorophenyl)but-2-enamide], the binding rate entry in experiment [1] was “A (A binding rate of 80% or more is rated “A”)”. Besides, the results for the half-inhibitory concentration (IC50) in experiment [2] and in experiment [3] were 56 nM and 60 nM, respectively.

As to `COc1c(-c2cccn3c(C(=O)c4cc(F)c(NC(=O)/C=C/CN[C@H]5CC[C@H](OC)CC5)c(F)c4)cnc23)c(C(F)(F)F)cc2c1nc(C)n2C` (single isomer, unassigned) [Example 83-2, (E)-N-(2,6-difluoro-4-(8-(4-methoxy-1,2-dimethyl-6-(trifluoromethyl)-1H-benzo[d]imidazol-5-yl)imidazo[1,2-a]pyridine-3-carbonyl)phenyl)-4-(((1r,4r)-4-methoxycyclohexyl)amino)but-2-enamide], the binding rate result in experiment [1] was “B (a binding rate of 60% or more and less than 80% is rated “B”)”. Besides, the half-maximal inhibitory concentration (IC50) was 920 nM in experiment [2] and 850 nM in experiment [3].

`COc1cc2c(nc(C)n2C)c(F)c1-c1cccn2c(C(=O)c3cc(F)c(NC(=O)/C=C/CN[C@H]4CC[C@H](OC)CC4)c(F)c3)ccc12` [Example 44]: the binding rate entry in experiment [1] is listed as “A (A binding rate of 80% or more is rated “A”)”. In addition, the 50% inhibitory concentration (IC50) was determined as 22 nM in experiment [2] and 23 nM in experiment [3] (Homo sapiens, MIA PaCa-2, 72 h).
